Measurements from US20130060020A1, “Compounds useful for treating neurodegenerative disorders” (Satori Pharmaceuticals, Inc., priority 2011, published 2013).
Like-named read-outs stand apart in the source and are kept apart here.

Tests used:
Assay type in all cases: cell-based
Conditions in all cases: Homo sapiens, 5 hours treatment
[1] = test system: Aβ-42; assay: Aβ-42 MSD 3-plex ELISA, conditioned media of 2B7 cells
Description: (§1) Assays were conducted to determine the ability of a Compound of Formula I to modulate […], and Aβ-38.
(§2) Plates with capture antibodies were blocked for 1-2 hours at room temperature with 150 μL of the manufactures blocking reagent.
(§3) Cultured 2B7 cells in 96 well plate with 250 μL of media per well until confluent;
(§4) Prepared serial dilutions of compounds in DMSO at 100× the final desired concentration;
(§5) Washed wells with 2B7 cells 1× with 250 μL of media;
(§6) Diluted DMSO stocks 1:100 into media: • Added 250 μL of media containing compounds (1% DMSO) to wells with 2B7 cells for 5 hours at 37° C.
(§7) ELISA Sample Prep: • Diluted conditioned media: 1 part media with 1% DMSO and 1 part blocking buffer; • 150 μL of the 250 μL of conditioned media were used.
(§8) Prepared per manufacturer's protocol (see above). • Seven point standard curve samples were prepared that contained Aβ-42, Aβ-40, and Aβ-38. The highest concentration of Aβ-42 and Aβ-38 was 3,000 pg/mL and the highest concentration of Aβ-40 was 10,000 pg/mL. Subsequent serial dilutions were 1:3 and the final composition of each sample was 1 part blocking buffer and 1 part cell medium containing 1% DMSO.
(§9) Overnight Sample Incubation: • Blocked plates are washed 5× with MSD wash buffer with a plate washer; • […] and blocker G reagent in MSD blocking solution was added; • 25 μL of samples (1 part conditioned media containing 1% DMSO and 1 part MSD blocking buffer) were then added; • Plates were incubated overnight at 4 degrees C. or 2 hours at room temperature.
(§10) Final Wash and Readout: • Washed wells 5× with MSD wash buffer; • Added 150 μL 2×MSD read buffer; • Read with MSD imager.
(§11) Aβ peptide levels for each peptide were calculated from the standard curve using the MSD software provided with the MSD 2400 Imager. Percent vehicle values for each compound dosage were then calculated and fit to a 4 parameter curve generating IC50 values.
(§12) Conditioned media from 2B7 cells (Mayo) was collected after 5 hours of treatment and diluted with 1 volume of Meso Scale Discovery (MSD, Gaithersburg Md.) blocking buffer (1% BSA in MSD wash buffer). For total Aβ measurements, standard-bind, multi-array single spot 96 well MSD ELISA plates were coated with unlabeled 4G8 capture antibody (Covance, Princeton, N.J.) overnight at 4° C. and then blocked with 5% BSA in MSD wash buffer for 1 hour at room temperature with orbital shaking Diluted 2B7 conditioned media were added to the blocked in-house total Aβ MSD plates with SULFO-TAG 6E10 antibody (MSD). For Aβ38, 40 and 42 measurements, diluted 2B7 conditioned media were added to blocked human (6E10) Aβ 3-Plex plates (MSD). Total Aβ and Aβ 3-Plex plates were incubated for 2 hours at room temperature with orbital shaking followed by washing and reading according to the manufacturer's instructions (SECTOR® Imager 2400, MSD). Aβ concentrations were converted to percent vehicle values and used to construct dose response curves which were fitted to […] using GraphPad Prism version 5.00 for Windows, GraphPad Software, San Diego Calif. USA.

[2] = test system: Aβ-38; assay: Aβ-38 MSD 3-plex ELISA, conditioned media of 2B7 cells
Description: as §1, §2, §3, §4, §5, §6, §7, §8, §9, §10, §11, §12

[3] = test system: Aβ-40; assay: Aβ-40 MSD 3-plex ELISA, conditioned media of 2B7 cells
Description: as §1, §2, §3, §4, §5, §6, §7, §8, §9, §10, §11, §12

[4] = inflection of dose response curve, read-out: Aβ 42 DR IC50 Inflection
[5] = inflection of dose response curve, read-out: Aβ 40 DR IC50 Inflection
[6] = inflection of dose response curve, read-out: Aβ 38 DR IC50 Inflection

| SMILES | IC50 [1, 4] [nM] | IC50 ([1]; read-out: Aβ 42 IC50) [nM] | IC50 ([2]; read-out: Aβ 38 IC50) [nM] | IC50 ([3]; read-out: Aβ 40 IC50) [nM] | IC50 [3, 5] [nM] | IC50 [2, 6] [nM] |
| --- | --- | --- | --- | --- | --- | --- |
| CCO[C@@H]([C@H]1C[C@@H](C)[C@H]2[C@H](O1)[C@H](O)[C@@]1(C)[C@@H]3CC[C@H]4C(C)(C)[C@@H](O[C@H]5CN(C6CN(CC(F)F)C6)CCO5)CC[C@@]45C[C@@]35CC[C@]21C)C(C)(C)O [Compound I-9] | 100 to 500 | 100 to 500 | 501 to 1000 | 1000 to 5000 |  |  |
| CCO[C@@H]([C@H]1C[C@@H](C)[C@H]2[C@H](O1)[C@H](O)[C@@]1(C)[C@@H]3CC[C@H]4C(C)(C)[C@@H](O[C@H]5CN(C6CN(C(CO)CO)C6)CCO5)CC[C@@]45C[C@@]35CC[C@]21C)C(C)(C)O [Compound I-74] | 100 to 500 | 100 to 500 | 100 to 500 | 1000 to 5000 |  |  |
| CCO[C@@H]([C@H]1C[C@@H](C)[C@H]2[C@H](O1)[C@H](O)[C@@]1(C)[C@@H]3CC[C@H]4C(C)(C)[C@@H](O[C@H]5CN(C6CN(CC(C)(C)C)C6)CCO5)CC[C@@]45C[C@@]35CC[C@]21C)C(C)(C)O [Compound I-16] | 100 to 500 | 100 to 500 | 501 to 1000 | 1000 to 5000 |  |  |
| CCO[C@@H]([C@H]1C[C@@H](C)[C@H]2[C@H](O1)[C@H](O)[C@@]1(C)[C@@H]3CC[C@H]4C(C)(C)[C@@H](O[C@H]5CN(CC6CN(C7CCC7)C6)CCO5)CC[C@@]45C[C@@]35CC[C@]21C)C(C)(C)O [Compound I-23] | 100 to 500 | 100 to 500 | 100 to 500 | 1000 to 5000 | > 5000 |  |
| CCO[C@@H]([C@H]1C[C@@H](C)[C@H]2[C@H](O1)[C@H](O)[C@@]1(C)[C@@H]3CC[C@H]4C(C)(C)[C@@H](O[C@H]5CN(CC6CN(CC(C)(C)C)C6)CCO5)CC[C@@]45C[C@@]35CC[C@]21C)C(C)(C)O [Compound I-18] | 100 to 500 | 100 to 500 | 501 to 1000 | 1000 to 5000 | 1000 to 5000 |  |
| CCO[C@@H]([C@H]1C[C@@H](C)[C@H]2[C@H](O1)[C@H](O)[C@@]1(C)[C@@H]3CC[C@H]4C(C)(C)[C@@H](O[C@H]5CN(CCN6CC(OC)C6)CCO5)CC[C@@]45C[C@@]35CC[C@]21C)C(C)(C)O [Compound I-62] | 100 to 500 | 100 to 500 | 501 to 1000 | 1000 to 5000 |  |  |
| CCO[C@@H]([C@H]1C[C@@H](C)[C@H]2[C@H](O1)[C@H](O)[C@@]1(C)[C@@H]3CC[C@H]4C(C)(C)[C@@H](O[C@H]5CN([C@H]6CCN(CC)C6=O)CCO5)CC[C@@]45C[C@@]35CC[C@]21C)C(C)(C)O [Compound I-1] | 501 to 1000 | 501 to 1000 | 501 to 1000 | > 5000 | > 5000 | 501 to 1000 |
| CCO[C@@H]([C@H]1C[C@@H](C)[C@H]2[C@H](O1)[C@H](O)[C@@]1(C)[C@@H]3CC[C@H]4C(C)(C)[C@@H](O[C@H]5CN(C6CN(CC7(C)COC7)C6)CCO5)CC[C@@]45C[C@@]35CC[C@]21C)C(C)(C)O [Compound I-32] | 100 to 500 | 100 to 500 | 100 to 500 | 1000 to 5000 |  |  |
| CCO[C@@H]([C@H]1C[C@@H](C)[C@H]2[C@H](O1)[C@H](O)[C@@]1(C)[C@@H]3CC[C@H]4C(C)(C)[C@@H](O[C@H]5CN(C6(C)CN(C7CCC7)C6)CCO5)CC[C@@]45C[C@@]35CC[C@]21C)C(C)(C)O [Compound I-27] | < 100 | 100 to 500 | 100 to 500 | 1000 to 5000 |  |  |
| CCO[C@@H]([C@H]1C[C@@H](C)[C@H]2[C@H](O1)[C@H](O)[C@@]1(C)[C@@H]3CC[C@H]4C(C)(C)[C@@H](O[C@H]5CN(CC6(O)CN(C7CCC7)C6)CCO5)CC[C@@]45C[C@@]35CC[C@]21C)C(C)(C)O [Compound I-44] | < 100 | < 100 | 100 to 500 | 1000 to 5000 |  |  |
| CCO[C@@H]([C@H]1C[C@@H](C)[C@H]2[C@H](O1)[C@H](O)[C@@]1(C)[C@@H]3CC[C@H]4C(C)(C)[C@@H](O[C@H]5CN(CC6CN(CC7(C)COC7)C6)CCO5)CC[C@@]45C[C@@]35CC[C@]21C)C(C)(C)O [Compound I-26] | 100 to 500 | 100 to 500 | 501 to 1000 | 1000 to 5000 | 1000 to 5000 | 1000 to 5000 |
| CCO[C@@H]([C@H]1C[C@@H](C)[C@H]2[C@H](O1)[C@H](O)[C@@]1(C)[C@@H]3CC[C@H]4C(C)(C)[C@@H](O[C@H]5CN(CCN6CC(F)C6)CCO5)CC[C@@]45C[C@@]35CC[C@]21C)C(C)(C)O [Compound I-63] | 100 to 500 | 100 to 500 | 501 to 1000 | 1000 to 5000 | 1000 to 5000 |  |
| CCO[C@@H]([C@H]1C[C@@H](C)[C@H]2[C@H](O1)[C@H](O)[C@@]1(C)[C@@H]3CC[C@H]4C(C)(C)[C@@H](O[C@H]5CN(C(C)(C)C6CN(C)C6)CCO5)CC[C@@]45C[C@@]35CC[C@]21C)C(C)(C)O [Compound I-12] | 100 to 500 | 100 to 500 | 100 to 500 | 1000 to 5000 |  |  |
| CCO[C@@H]([C@H]1C[C@@H](C)[C@H]2[C@H](O1)[C@H](O)[C@@]1(C)[C@@H]3CC[C@H]4C(C)(C)[C@@H](O[C@H]5CN(C6CN(C(C)(C)C)C6)CCO5)CC[C@@]45C[C@@]35CC[C@]21C)C(C)(C)O [Compound I-14] | < 100 | < 100 | 100 to 500 | 1000 to 5000 |  |  |
| CCO[C@@H]([C@H]1C[C@@H](C)[C@H]2[C@H](O1)[C@H](O)[C@@]1(C)[C@@H]3CC[C@H]4C(C)(C)[C@@H](O[C@H]5CN(C6(C)CN(C)C6)CCO5)CC[C@@]45C[C@@]35CC[C@]21C)C(C)(C)O [Compound I-31] | < 100 | < 100 | 100 to 500 | 1000 to 5000 |  |  |
| CCO[C@@H]([C@H]1C[C@@H](C)[C@H]2[C@H](O1)[C@H](O)[C@@]1(C)[C@@H]3CC[C@H]4C(C)(C)[C@@H](O[C@H]5CN(CC6(O)CN(C)C6)CCO5)CC[C@@]45C[C@@]35CC[C@]21C)C(C)(C)O [Compound I-42] | < 100 | < 100 | 100 to 500 | 501 to 1000 |  |  |
| CCO[C@@H]([C@H]1C[C@@H](C)[C@H]2[C@H](O1)[C@H](O)[C@@]1(C)[C@@H]3CC[C@H]4C(C)(C)[C@@H](O[C@H]5CN(CC6CN(C(CO)CO)C6)CCO5)CC[C@@]45C[C@@]35CC[C@]21C)C(C)(C)O [Compound I-73] | 100 to 500 | 100 to 500 | 100 to 500 | 1000 to 5000 |  |  |
| CCO[C@@H]([C@H]1C[C@@H](C)[C@H]2[C@H](O1)[C@H](O)[C@@]1(C)[C@@H]3CC[C@H]4C(C)(C)[C@@H](O[C@H]5CN(C6(C)CN(C7COC7)C6)CCO5)CC[C@@]45C[C@@]35CC[C@]21C)C(C)(C)O [Compound I-36] | 100 to 500 | 100 to 500 | 501 to 1000 |  |  |  |
| CCO[C@@H]([C@H]1C[C@@H](C)[C@H]2[C@H](O1)[C@H](O)[C@@]1(C)[C@@H]3CC[C@H]4C(C)(C)[C@@H](O[C@H]5CN(C6(C)CN(CC(C)(C)C)C6)CCO5)CC[C@@]45C[C@@]35CC[C@]21C)C(C)(C)O [Compound I-33] | < 100 | 100 to 500 | 100 to 500 |  |  |  |
| CCO[C@@H]([C@H]1C[C@@H](C)[C@H]2[C@H](O1)[C@H](O)[C@@]1(C)[C@@H]3CC[C@H]4C(C)(C)[C@@H](O[C@H]5CN(CCN6CC(F)(F)C6)CCO5)CC[C@@]45C[C@@]35CC[C@]21C)C(C)(C)O [Compound I-64] | 100 to 500 | 100 to 500 | 501 to 1000 |  |  |  |
